Columns and labels:
[1] = biological target: Serine/threonine-protein kinase Nek9 (Homo sapiens) (UniProt Q8TD19); settings: Compound concentration 1000.0 nM
[2] = biological target: Serine/threonine-protein kinase Nek2 (Homo sapiens) (UniProt P51955); settings: Compound concentration 1000.0 nM
[3] = biological target: Cyclin-dependent kinase 4 (Homo sapiens) (UniProt P11802); settings: Compound concentration 1000.0 nM
[4] = biological target: Ephrin type-B receptor 2 (Homo sapiens) (UniProt P29323); settings: Compound concentration 1000.0 nM
[5] = biological target: Mitogen-activated protein kinase kinase kinase kinase 2 (Homo sapiens) (UniProt Q12851); settings: Compound concentration 1000.0 nM
[6] = biological target: Serine/threonine-protein kinase PAK 4 (Homo sapiens) (UniProt O96013); settings: Compound concentration 1000.0 nM
[7] = biological target: Cyclin-dependent kinase-like 3 (Homo sapiens) (UniProt Q8IVW4); settings: Compound concentration 1000.0 nM
[8] = biological target: Fibroblast growth factor receptor 2 (Homo sapiens) (UniProt P21802); settings: Compound concentration 1000.0 nM
Fibroblast growth factor receptor 2 (Homo sapiens), sequence (P21802 22-821 limits assumed): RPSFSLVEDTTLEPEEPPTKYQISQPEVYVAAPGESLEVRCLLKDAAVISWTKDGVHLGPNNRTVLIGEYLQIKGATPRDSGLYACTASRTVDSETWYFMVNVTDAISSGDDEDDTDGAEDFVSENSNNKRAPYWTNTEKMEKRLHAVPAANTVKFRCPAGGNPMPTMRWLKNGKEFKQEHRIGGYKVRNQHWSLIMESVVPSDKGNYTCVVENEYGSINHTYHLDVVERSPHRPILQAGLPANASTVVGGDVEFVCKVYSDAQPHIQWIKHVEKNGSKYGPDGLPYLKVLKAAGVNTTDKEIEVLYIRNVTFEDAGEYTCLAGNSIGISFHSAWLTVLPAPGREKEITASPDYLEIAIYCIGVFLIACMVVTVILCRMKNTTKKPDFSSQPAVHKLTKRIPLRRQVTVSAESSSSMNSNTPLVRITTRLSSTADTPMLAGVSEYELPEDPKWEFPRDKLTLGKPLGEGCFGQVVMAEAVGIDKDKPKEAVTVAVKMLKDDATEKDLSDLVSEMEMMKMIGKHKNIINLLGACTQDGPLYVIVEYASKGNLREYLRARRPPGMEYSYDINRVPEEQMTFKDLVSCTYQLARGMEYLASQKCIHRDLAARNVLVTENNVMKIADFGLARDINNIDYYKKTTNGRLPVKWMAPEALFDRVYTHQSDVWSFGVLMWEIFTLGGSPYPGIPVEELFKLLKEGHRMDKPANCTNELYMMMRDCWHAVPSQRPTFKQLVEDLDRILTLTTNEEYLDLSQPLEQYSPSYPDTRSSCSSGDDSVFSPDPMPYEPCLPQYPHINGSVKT

[9] = biological target: Calcium/calmodulin-dependent protein kinase kinase 2 (Homo sapiens) (UniProt Q96RR4); settings: Compound concentration 1000.0 nM
[10] = biological target: Proto-oncogene tyrosine-protein kinase Src (Homo sapiens) (UniProt P12931); settings: Compound concentration 1000.0 nM
[11] = biological target: Cyclin-G-associated kinase (Homo sapiens) (UniProt O14976); settings: Compound concentration 1000.0 nM
[12] = biological target: Serine/threonine-protein kinase VRK2 (Homo sapiens) (UniProt Q86Y07); settings: Compound concentration 1000.0 nM
Serine/threonine-protein kinase VRK2 (Homo sapiens), sequence (Q86Y07 whole entry): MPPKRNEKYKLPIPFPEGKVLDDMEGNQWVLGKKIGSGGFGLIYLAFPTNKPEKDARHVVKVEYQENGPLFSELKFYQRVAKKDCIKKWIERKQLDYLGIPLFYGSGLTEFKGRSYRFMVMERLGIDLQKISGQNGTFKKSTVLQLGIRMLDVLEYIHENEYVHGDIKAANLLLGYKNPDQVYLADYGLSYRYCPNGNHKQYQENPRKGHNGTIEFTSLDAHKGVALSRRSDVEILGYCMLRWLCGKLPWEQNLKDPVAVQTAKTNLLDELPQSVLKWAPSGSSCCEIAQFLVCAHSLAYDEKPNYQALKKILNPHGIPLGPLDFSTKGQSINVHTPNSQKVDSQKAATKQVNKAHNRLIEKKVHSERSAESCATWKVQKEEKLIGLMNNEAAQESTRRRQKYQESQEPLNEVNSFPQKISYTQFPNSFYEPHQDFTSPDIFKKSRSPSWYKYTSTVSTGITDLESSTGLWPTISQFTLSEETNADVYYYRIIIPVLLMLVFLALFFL

[13] = system: Tyrosine-protein kinase ABL1 (Homo sapiens), P00519 [Q252H]; settings: Compound concentration 1000.0 nM
[14] = biological target: Mitogen-activated protein kinase kinase kinase 14 (Homo sapiens) (UniProt Q99558); settings: Compound concentration 1000.0 nM
[15] = biological target: Serine/threonine-protein kinase ICK (Homo sapiens) (UniProt Q9UPZ9); settings: Compound concentration 1000.0 nM
[16] = biological target: Ribosomal protein S6 kinase alpha-6 (Homo sapiens) (UniProt Q9UK32); settings: Compound concentration 1000.0 nM
[17] = biological target: Serine/threonine-protein kinase DCLK1 (Homo sapiens) (UniProt O15075); settings: Compound concentration 1000.0 nM
[18] = biological target: Serine/threonine-protein kinase D1 (Homo sapiens) (UniProt Q15139); settings: Compound concentration 1000.0 nM
[19] = system: Tyrosine-protein kinase ABL1 (Homo sapiens), P00519 [T315I]; settings: Compound concentration 1000.0 nM
[20] = biological target: Vascular endothelial growth factor receptor 1 (Homo sapiens) (UniProt P17948); settings: Compound concentration 1000.0 nM
[21] = biological target: Inhibitor of nuclear factor kappa-B kinase subunit beta (Homo sapiens) (UniProt O14920); settings: Compound concentration 1000.0 nM
[22] = biological target: Discoidin domain-containing receptor 2 (Homo sapiens) (UniProt Q16832); settings: Compound concentration 1000.0 nM
[23] = biological target: Ephrin type-A receptor 4 (Homo sapiens) (UniProt P54764); test: EphA4 (h) Millipore kinase activity assay; settings: Compound concentration 1.0 uM
[24] = biological target: Aurora kinase A (Homo sapiens) (UniProt O14965); test: Aurora-A( h) Millipore kinase activity assay; settings: Compound concentration 1.0 uM
[25] = biological target: T1, Muscarinic acetylcholine receptor M1 (Homo sapiens) (UniProt P11229); settings: Compound concentration 10.0 uM
T1 sequence (whole entry): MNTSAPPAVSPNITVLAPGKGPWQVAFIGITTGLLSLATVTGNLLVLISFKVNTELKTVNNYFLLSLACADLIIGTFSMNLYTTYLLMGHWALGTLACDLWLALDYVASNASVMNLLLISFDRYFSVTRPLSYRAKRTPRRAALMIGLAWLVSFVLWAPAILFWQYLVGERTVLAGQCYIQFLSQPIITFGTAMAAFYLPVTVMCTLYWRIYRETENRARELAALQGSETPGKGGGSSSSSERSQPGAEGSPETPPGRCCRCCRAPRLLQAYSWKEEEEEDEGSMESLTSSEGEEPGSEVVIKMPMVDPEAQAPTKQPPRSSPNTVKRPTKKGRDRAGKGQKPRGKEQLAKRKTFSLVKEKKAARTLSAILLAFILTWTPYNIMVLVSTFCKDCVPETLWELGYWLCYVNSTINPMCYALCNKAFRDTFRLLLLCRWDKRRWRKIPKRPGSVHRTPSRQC

[26] = biological target: Serine/threonine-protein kinase Sgk3 (Homo sapiens) (UniProt Q96BR1); test: SGK3 (h) Millipore kinase activity assay; settings: Compound concentration 1.0 uM
Serine/threonine-protein kinase Sgk3 (Homo sapiens), sequence (Q96BR1 whole entry): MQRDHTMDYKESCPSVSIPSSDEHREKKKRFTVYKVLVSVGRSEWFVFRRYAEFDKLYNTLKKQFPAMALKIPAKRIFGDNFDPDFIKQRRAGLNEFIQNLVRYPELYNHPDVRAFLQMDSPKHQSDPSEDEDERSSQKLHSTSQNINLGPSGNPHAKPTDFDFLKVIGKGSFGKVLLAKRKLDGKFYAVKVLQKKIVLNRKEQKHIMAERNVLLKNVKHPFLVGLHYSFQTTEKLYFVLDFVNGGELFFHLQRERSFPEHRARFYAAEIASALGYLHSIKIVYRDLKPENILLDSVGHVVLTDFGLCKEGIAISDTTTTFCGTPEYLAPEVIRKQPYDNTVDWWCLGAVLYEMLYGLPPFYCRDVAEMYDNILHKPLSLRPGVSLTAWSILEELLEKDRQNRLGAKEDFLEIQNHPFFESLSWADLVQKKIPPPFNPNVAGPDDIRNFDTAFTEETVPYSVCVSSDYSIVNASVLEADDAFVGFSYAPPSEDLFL

[27] = biological target: Serine/threonine-protein kinase Nek6 (Homo sapiens) (UniProt Q9HC98); test: NEK6 (h) Millipore kinase activity assay; settings: Compound concentration 1.0 uM
[28] = biological target: NUAK family SNF1-like kinase 1 (Homo sapiens) (UniProt O60285); test: ARK5 (h) Millipore kinase activity assay; settings: Compound concentration 1.0 uM
NUAK family SNF1-like kinase 1 (Homo sapiens), sequence (O60285 whole entry): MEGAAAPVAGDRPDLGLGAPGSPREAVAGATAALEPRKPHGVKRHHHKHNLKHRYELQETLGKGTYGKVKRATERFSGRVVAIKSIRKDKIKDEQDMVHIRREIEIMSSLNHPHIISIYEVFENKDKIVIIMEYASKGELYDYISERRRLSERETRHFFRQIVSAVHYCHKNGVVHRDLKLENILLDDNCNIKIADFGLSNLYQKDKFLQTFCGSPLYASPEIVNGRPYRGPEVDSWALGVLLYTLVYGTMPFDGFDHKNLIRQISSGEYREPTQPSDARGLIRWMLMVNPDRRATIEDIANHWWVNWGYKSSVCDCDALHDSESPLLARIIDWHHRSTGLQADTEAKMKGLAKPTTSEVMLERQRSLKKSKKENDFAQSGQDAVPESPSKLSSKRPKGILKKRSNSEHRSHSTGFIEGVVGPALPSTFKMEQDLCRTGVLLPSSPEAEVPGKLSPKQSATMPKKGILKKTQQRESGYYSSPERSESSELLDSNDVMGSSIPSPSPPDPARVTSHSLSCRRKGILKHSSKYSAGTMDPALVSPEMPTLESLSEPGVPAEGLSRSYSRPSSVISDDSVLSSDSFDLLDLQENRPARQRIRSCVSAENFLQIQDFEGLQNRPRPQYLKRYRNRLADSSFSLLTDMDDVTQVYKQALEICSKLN

[29] = biological target: T2, Muscarinic acetylcholine receptor M2 (Homo sapiens) (UniProt P08172); settings: Compound concentration 10.0 uM
T2 sequence (whole entry): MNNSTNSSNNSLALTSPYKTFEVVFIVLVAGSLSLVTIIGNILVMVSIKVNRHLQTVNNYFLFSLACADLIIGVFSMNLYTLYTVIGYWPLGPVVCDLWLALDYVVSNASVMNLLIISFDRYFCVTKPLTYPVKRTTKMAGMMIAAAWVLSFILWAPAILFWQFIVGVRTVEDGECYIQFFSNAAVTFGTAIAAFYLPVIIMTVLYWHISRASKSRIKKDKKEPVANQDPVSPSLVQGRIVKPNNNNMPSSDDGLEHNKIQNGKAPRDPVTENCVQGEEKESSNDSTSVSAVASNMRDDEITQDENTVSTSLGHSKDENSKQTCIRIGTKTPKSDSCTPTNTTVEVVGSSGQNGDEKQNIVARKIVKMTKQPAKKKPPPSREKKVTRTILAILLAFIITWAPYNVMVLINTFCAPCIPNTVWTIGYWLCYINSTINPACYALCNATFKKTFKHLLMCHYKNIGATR

[30] = biological target: Endothelin-1 receptor (Homo sapiens) (UniProt P25101); settings: Compound concentration 10.0 uM
Endothelin-1 receptor (Homo sapiens), sequence (P25101 whole entry): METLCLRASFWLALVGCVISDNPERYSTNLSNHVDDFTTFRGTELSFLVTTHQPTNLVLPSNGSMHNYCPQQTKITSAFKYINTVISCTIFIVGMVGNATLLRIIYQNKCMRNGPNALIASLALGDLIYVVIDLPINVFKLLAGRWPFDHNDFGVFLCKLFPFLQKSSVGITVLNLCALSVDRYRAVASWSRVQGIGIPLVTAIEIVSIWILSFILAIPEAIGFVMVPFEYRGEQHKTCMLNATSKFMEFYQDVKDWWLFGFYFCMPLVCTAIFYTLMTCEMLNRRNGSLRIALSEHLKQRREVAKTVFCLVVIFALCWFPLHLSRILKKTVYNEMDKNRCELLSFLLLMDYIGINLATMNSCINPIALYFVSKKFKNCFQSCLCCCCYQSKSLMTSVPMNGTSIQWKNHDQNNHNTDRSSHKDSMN

[31] = biological target: Serine/threonine-protein kinase TAO2 (Homo sapiens) (UniProt Q9UL54); test: TAO2 (h) Millipore kinase activity assay; settings: Compound concentration 1.0 uM
[32] = biological target: Tyrosine-protein kinase Mer (Homo sapiens) (UniProt Q12866); test: Mer (h) Millipore kinase activity assay; settings: Compound concentration 1.0 uM
[33] = biological target: G protein-coupled receptor kinase 5 (Homo sapiens) (UniProt P34947); test: GRK5 (h) Millipore kinase activity assay; settings: Compound concentration 1.0 uM
G protein-coupled receptor kinase 5 (Homo sapiens), sequence (P34947 whole entry, looked up): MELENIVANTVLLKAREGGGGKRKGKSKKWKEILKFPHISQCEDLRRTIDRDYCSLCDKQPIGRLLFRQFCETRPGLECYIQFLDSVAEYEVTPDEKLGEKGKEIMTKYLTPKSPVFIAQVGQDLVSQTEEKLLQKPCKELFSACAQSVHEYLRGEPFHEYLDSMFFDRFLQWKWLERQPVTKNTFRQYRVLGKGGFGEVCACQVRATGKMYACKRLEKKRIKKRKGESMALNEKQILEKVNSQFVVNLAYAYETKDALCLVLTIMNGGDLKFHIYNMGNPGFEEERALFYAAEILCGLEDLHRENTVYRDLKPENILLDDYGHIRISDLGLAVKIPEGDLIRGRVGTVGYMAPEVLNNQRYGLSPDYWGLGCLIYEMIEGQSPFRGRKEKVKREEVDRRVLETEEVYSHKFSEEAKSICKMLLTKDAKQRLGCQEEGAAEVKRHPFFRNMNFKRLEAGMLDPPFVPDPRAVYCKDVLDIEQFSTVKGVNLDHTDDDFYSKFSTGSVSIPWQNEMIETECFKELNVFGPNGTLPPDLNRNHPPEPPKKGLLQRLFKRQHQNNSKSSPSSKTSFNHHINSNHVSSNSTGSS

Serine/threonine-protein kinase Nek9 (Homo sapiens), sequence (Q8TD19 whole entry): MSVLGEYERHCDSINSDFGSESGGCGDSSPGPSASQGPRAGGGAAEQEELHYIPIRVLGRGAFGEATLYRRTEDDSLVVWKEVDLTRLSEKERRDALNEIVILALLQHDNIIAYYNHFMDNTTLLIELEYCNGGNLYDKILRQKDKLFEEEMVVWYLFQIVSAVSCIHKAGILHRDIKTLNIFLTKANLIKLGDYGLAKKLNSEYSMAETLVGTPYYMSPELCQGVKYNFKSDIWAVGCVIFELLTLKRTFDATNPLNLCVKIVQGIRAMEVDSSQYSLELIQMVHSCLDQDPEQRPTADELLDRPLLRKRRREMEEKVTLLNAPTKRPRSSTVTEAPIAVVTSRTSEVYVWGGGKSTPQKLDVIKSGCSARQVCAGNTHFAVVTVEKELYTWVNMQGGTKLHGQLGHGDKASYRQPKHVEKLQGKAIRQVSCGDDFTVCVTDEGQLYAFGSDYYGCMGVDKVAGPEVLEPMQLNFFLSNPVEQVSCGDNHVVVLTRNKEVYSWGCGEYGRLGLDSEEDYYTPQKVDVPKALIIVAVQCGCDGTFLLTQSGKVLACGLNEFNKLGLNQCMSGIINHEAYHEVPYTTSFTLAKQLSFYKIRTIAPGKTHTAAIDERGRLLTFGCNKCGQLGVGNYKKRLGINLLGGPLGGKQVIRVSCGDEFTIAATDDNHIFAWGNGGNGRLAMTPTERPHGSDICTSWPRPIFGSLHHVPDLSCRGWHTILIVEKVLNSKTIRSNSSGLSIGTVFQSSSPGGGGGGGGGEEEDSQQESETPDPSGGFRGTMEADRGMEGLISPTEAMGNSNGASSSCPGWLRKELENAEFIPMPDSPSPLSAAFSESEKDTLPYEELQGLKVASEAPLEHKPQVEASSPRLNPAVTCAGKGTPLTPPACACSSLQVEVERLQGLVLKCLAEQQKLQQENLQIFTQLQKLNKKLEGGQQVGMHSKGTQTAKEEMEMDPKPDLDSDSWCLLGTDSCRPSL
Serine/threonine-protein kinase Nek2 (Homo sapiens), sequence (P51955 whole entry): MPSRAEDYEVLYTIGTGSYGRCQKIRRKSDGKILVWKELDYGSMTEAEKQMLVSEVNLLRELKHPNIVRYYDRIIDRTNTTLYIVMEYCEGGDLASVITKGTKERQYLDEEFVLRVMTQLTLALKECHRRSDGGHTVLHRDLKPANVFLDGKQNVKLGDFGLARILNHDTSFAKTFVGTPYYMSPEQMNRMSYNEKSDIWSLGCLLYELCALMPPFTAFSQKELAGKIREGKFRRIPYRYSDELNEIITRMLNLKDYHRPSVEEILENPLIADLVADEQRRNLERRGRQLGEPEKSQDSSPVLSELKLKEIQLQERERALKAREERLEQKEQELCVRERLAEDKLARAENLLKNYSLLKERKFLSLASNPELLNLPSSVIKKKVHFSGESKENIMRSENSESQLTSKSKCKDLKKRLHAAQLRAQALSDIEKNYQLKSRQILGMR

CC1=C(C#N)[C@@H](c2ccc3[nH]nc(C)c3c2)C(C#N)=C(c2ccc(Cl)cc2)N1 [BAY-827]
residual activity [1]: 95.6% | residual activity [2]: 100% | residual activity [3]: 96.1% | residual activity [4]: 100% | residual activity [5]: 100% | residual activity [6]: 100% | residual activity [7]: 100% | residual activity [8]: 74.3% | residual activity [9]: 86.5% | residual activity [10]: 100% | residual activity [11]: 100% | residual activity [12]: 100% | residual activity [13]: 43.8% | residual activity [14]: 100% | residual activity [15]: 76.2% | residual activity [16]: 77.4% | residual activity [17]: 79.2% | residual activity [18]: 81.1% | residual activity [19]: 100% | residual activity [20]: 100% | residual activity [21]: 100% | residual activity [22]: 99.4%

CC1=C(C#N)C(c2ccc3[nH]nc(C)c3c2)C(C#N)=C(C)N1 [BAY-474]
inhibition [23]: -5% | inhibition [24]: 40% | inhibition [25]: 0% | inhibition [26]: -2% | inhibition [27]: -10% | inhibition [28]: 22% | inhibition [29]: 0% | inhibition [30]: 7% | inhibition [31]: -2% | inhibition [32]: 12% | inhibition [33]: 0%
